# Results from patent US20080319000A1, “Use of 3,1IB-Cis-Dihydrotetrabenazine for the Treatment of Symptoms of Huntingtons Disease” (CAMBRIDGE LABORATORIES (IRELAND) LIMITED, priority 2005, published 2008).
# Legend:
# VMAT1 = target: T1, VMAT1 (Homo sapiens, UniProt P54219); assay: VMAT1 affinity; type: binding
# T1 sequence (P54219 1-525): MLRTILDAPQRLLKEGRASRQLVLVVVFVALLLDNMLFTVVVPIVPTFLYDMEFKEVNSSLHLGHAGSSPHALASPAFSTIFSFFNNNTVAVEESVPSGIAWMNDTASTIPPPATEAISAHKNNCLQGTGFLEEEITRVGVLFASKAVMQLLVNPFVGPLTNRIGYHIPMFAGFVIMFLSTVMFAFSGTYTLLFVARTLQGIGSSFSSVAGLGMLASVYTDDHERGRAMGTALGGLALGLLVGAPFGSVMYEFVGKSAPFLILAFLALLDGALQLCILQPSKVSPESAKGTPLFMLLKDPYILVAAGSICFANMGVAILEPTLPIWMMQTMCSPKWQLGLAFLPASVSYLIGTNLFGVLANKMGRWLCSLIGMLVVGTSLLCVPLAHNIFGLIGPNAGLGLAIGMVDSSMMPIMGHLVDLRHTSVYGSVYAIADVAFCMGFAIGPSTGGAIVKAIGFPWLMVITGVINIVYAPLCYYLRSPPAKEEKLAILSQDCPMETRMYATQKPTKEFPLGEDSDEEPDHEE
# Male Sprague-Dawley rats = assay: Spontaneous locomotor activity in rats (sedative properties); type: in vivo; conditions: for Inactivity Duration / Large movements Duration / Large movements Occurrence: 20 min period, mean ± SEM n=12
# Method: A study was carried out in rats to determine whether the dihydrotetrabenazine isomers of the invention have sedative properties. […] Male Sprague-Dawley rats, (Charles River Laboratories, Saint-Germain/L'Arbresle, France), weighing 200-250 g at the beginning of the study, were used for the studies. […] The rats were allowed to acclimatize to their conditions for at least five days before commencement of the study. The rats received food ([…], France, ref. 811002) and water (tap water in water bottle) ad libitum. Solutions of each test compound in corn oil were freshly prepared on the day of the experiment. Haloperidol was prepared in hydroxyethylcellulose, 0.5% in deionized water. Either the vehicle or the test compounds were administered as a single dose (0.3, 1, 3 and 10 mg/kg, 2 mL/kg i.p.). The reference compound haloperidol (1 mg/kg) was administered i.p. […] The animals were placed in plexiglass cages under a video camera in a room with low light intensity (maximum 50 lux). At forty five minutes and 3 hours after administration, locomotor activity was determined during 20 minute periods using a video image analyzer (Videotrack, View Point, France). […] The number and duration of ambulatory movements and duration of inactivity was measured. At the end of the locomotor activity measurement (45 minutes and 3 hours), palpebral closure and arousal were be scored as follows in the plexiglass cage: […] Image tracking was performed using a video camera placed above the plexiglass cage, recording overall locomotor activity. […] The results were expressed as the means ±SEMs of the 12 individual values. Statistical analyses were carried out using ANOVA (one way) and Dunnett's t-test and with the non parametric test of Kruskal-Wallis followed by a Mann & Whitney U-test for the sedation cotation. A p value of p<0.05 was taken as indicating significance. Group size n=12 Group 1: Reference, haloperidol (1 mg/kg i.p.) Group 2: Vehicle control group (2 ml/kg i.p.) Group 3: tetrabenazine (0.3 mg/kg i.p) Group 4: tetrabenazine (1 mg/kg i.p) Group 5: tetrabenazine (3 mg/kg i.p) Group 6: tetrabenazine (10 mg/kg i.p) Group 7: […]
# [1] = target: 5-hydroxytryptamine isoform 1d (Homo sapiens, UniProt P28221); assay: 5-hydroxytryptamine 1d inhibition; type: binding
# [2] = target: Dopamine Transporter (DAT) (Homo sapiens, UniProt Q01959); assay: Dopamine Transporter (DAT) binding
# [3] = target: T2, catechol O-methyl transferase (COMT) (Homo sapiens, UniProt P21964); assay: COMT inhibition; type: biochemical
# T2 sequence (P21964 1-271): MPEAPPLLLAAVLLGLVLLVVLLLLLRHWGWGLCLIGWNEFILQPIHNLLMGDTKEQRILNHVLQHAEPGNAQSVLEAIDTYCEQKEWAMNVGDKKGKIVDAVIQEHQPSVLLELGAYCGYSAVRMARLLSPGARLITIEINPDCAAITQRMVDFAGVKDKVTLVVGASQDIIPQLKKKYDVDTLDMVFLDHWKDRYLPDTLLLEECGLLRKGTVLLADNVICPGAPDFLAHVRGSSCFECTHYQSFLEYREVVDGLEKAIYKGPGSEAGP
# [4] = target: serotonin transporter protein SERT (Homo sapiens, UniProt P31645); assay: Serotonin transporter SERT inhibition; type: binding
# [5] = target: 5-hydroxytryptamine isoform 1b (Homo sapiens, UniProt P28222); assay: 5-hydroxytryptamine 1b inhibition; type: binding
# [6] = target: T3, monoamine oxidase isoform B (Homo sapiens, UniProt P27338); assay: Monoamine oxidase B inhibition; type: biochemical
# T3 sequence (P27338 1-520): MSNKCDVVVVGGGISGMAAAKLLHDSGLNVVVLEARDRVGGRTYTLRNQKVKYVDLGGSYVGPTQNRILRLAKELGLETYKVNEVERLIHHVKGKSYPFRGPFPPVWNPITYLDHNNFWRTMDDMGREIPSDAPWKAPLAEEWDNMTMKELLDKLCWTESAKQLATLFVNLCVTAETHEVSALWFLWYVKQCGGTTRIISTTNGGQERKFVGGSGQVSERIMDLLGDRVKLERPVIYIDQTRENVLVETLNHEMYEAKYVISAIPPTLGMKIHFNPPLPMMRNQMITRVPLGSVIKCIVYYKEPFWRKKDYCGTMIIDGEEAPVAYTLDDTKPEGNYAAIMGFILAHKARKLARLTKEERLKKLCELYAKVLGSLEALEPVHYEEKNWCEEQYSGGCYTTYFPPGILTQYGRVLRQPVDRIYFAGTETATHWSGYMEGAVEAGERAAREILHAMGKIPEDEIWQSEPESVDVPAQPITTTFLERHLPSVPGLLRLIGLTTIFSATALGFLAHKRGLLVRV
# [7] = target: T4, monoamine oxidase isoform A (Homo sapiens, UniProt P21397); assay: Monoamine oxidase A inhibition; type: biochemical
# T4 sequence (P21397 1-527): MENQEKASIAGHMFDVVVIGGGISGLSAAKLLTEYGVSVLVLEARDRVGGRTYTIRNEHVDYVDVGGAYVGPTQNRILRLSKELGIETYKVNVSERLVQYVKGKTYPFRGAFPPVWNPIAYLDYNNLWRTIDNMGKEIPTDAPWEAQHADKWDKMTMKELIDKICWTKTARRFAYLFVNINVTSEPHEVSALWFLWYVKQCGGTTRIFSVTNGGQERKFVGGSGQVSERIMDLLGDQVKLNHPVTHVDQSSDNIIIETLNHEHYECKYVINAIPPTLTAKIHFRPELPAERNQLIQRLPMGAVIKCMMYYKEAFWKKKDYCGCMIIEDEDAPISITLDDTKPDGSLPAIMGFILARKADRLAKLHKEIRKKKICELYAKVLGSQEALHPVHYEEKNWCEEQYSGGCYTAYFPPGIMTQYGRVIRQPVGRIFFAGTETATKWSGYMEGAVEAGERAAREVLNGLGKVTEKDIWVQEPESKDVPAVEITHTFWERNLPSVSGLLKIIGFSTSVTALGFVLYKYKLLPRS
# dopamine receptor = assay: Dopamine receptor binding
# adrenergic receptors = assay: Adrenergic receptor inhibition; type: binding
# [8] = locomotor studies carried out on rats
# [9] = rats, 0.3 mg/kg i.p., 45 minutes after administration
# [10] = rats, 0.3 mg/kg i.p., 3 hours after administration
# [11] = rats, 1 mg/kg i.p., 45 minutes after administration
# [12] = rats, 1 mg/kg i.p., 3 hours after administration
# [13] = rats, 3 mg/kg i.p., 45 minutes after administration
# [14] = rats, 3 mg/kg i.p., 3 hours after administration
# [15] = rats, 10 mg/kg i.p., 45 minutes after administration
# [16] = rats, 10 mg/kg i.p., 3 hours after administration
# [17] = rats, 0.3, 1, 3 and 10 mg/kg i.p., 45 minutes and 3 hours after administration
# Sequence of Dopamine Transporter (DAT) (Q01959 whole entry, species assumed): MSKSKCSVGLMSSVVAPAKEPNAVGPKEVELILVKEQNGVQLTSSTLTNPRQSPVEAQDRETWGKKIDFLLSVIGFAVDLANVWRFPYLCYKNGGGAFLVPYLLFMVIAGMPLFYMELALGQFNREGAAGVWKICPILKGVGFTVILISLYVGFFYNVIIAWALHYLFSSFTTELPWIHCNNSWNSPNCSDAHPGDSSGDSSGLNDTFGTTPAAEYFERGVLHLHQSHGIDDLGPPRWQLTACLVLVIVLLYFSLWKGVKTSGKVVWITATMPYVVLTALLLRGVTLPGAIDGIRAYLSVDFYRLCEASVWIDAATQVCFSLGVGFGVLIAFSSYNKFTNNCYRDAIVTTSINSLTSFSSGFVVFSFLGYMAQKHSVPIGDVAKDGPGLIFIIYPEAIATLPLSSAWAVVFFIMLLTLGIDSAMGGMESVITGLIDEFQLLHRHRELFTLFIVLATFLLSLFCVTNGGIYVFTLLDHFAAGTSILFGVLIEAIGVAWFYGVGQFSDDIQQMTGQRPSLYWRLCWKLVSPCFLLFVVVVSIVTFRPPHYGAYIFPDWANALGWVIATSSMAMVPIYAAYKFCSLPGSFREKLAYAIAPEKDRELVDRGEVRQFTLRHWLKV
# Sequence of serotonin transporter protein SERT (P31645 whole entry, canonical isoform): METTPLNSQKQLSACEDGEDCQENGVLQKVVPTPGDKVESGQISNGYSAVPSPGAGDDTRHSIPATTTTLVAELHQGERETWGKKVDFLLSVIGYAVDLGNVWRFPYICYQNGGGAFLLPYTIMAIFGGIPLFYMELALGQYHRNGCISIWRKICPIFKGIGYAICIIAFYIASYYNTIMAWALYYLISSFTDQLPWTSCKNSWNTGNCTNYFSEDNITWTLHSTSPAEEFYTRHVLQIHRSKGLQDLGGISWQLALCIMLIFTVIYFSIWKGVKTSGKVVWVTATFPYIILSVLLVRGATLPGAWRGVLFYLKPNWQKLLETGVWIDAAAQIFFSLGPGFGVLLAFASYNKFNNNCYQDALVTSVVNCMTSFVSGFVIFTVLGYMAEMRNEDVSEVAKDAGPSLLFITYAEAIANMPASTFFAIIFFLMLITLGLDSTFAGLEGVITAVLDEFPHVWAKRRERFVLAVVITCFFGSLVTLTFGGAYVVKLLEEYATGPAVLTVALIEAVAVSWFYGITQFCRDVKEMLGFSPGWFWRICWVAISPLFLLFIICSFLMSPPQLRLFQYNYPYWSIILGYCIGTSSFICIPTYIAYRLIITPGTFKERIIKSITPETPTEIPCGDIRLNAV
# Sequence of 5-hydroxytryptamine isoform 1d (P28221 whole entry, canonical isoform): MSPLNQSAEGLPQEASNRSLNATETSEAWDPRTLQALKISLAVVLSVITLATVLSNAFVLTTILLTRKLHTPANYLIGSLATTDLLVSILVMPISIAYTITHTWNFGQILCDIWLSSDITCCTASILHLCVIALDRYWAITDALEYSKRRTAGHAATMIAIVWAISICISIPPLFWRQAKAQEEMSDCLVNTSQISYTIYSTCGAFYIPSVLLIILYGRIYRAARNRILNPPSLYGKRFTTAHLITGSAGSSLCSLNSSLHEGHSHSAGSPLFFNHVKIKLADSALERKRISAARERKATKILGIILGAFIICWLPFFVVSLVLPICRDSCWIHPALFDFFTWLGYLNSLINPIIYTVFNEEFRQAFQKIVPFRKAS
# Sequence of 5-hydroxytryptamine isoform 1b (P28222 whole entry, canonical isoform): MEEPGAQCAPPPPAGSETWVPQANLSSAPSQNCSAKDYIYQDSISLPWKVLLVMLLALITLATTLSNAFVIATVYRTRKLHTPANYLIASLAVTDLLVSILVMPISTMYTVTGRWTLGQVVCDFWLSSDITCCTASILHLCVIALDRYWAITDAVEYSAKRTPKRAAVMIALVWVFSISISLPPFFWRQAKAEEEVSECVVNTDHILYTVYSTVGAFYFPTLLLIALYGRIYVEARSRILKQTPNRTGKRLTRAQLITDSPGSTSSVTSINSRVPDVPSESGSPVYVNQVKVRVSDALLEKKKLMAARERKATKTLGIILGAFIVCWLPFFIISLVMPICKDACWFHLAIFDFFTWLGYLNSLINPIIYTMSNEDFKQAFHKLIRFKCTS
SMILES,sedative effect (Male Sprague-Dawley rats; [8]),Inactivity Duration (Male Sprague-Dawley rats; [9]) [s],Large movements Duration (Male Sprague-Dawley rats; [9]) [s],Large movements Occurrence (Male Sprague-Dawley rats; [9]),Inactivity Duration (Male Sprague-Dawley rats; [10]) [s],Large movements Duration (Male Sprague-Dawley rats; [10]) [s],Large movements Occurrence (Male Sprague-Dawley rats; [10]),Inactivity Duration (Male Sprague-Dawley rats; [11]) [s],Large movements Duration (Male Sprague-Dawley rats; [11]) [s],Large movements Occurrence (Male Sprague-Dawley rats; [11]),Inactivity Duration (Male Sprague-Dawley rats; [12]) [s],Large movements Duration (Male Sprague-Dawley rats; [12]) [s],Large movements Occurrence (Male Sprague-Dawley rats; [12]),Inactivity Duration (Male Sprague-Dawley rats; [13]) [s],Large movements Duration (Male Sprague-Dawley rats; [13]) [s],Large movements Occurrence (Male Sprague-Dawley rats; [13]),Inactivity Duration (Male Sprague-Dawley rats; [14]) [s],Large movements Duration (Male Sprague-Dawley rats; [14]) [s],Large movements Occurrence (Male Sprague-Dawley rats; [14]),Inactivity Duration (Male Sprague-Dawley rats; [15]) [s],also measured
"COc1cc2c(cc1OC)C1CC(=O)C(CC(C)C)CN1CC2 (racemic) [tetrabenazine, 1,3,4,6,7,11b-hexahydro-9,10-dimethoxy-3-(2-methylpropyl)-2H-benzo(a)quinolizin-2-one]",dose related sedative effect,390.4 ± 37.4,66.8 ± 10.7,253 ± 32,545.9 ± 37.1,24.3 ± 4.2,96 ± 14,456.5 ± 50.5,46.5 ± 8.6,189 ± 32,556.9 ± 31.1,21.5 ± 4.0,90 ± 16,697.8 ± 39.7,8.7 ± 5.9,38 ± 25,729.9 ± 26.8,1.7 ± 0.9,9 ± 4,723.1 ± 46.5,affinity for VMAT1 (VMAT1): only a low affinity; Large movements Duration (Male Sprague-Dawley rats; [15]): 0.2 ± 0.2 s; Large movements Occurrence (Male Sprague-Dawley rats; [15]): 1 ± 1; Inactivity Duration (Male Sprague-Dawley rats; [16]): 762.1 ± 40.7 s; Large movements Duration (Male Sprague-Dawley rats; [16]): 0.6 ± 0.3 s; Large movements Occurrence (Male Sprague-Dawley rats; [16]): 3 ± 1; sedative effect (Male Sprague-Dawley rats; [17]): dose-dependent sedative effect
"COc1cc2c(cc1OC)C1CC(O)C(CC(C)C)CN1CC2 (single isomer, unassigned; isomer c) [Isomer C]",no sedative effects were observed,323.7 ± 25.6,79.2 ± 10.0,285 ± 34,519.3 ± 33.7,31.4 ± 6.0,113 ± 19,324.6 ± 38.1,71.8 ± 8.3,295 ± 30,510.2 ± 44.9,30.3 ± 6.5,128 ± 24,322.7 ± 27.8,84.0 ± 9.4,308 ± 36,493.6 ± 38.5,30.2 ± 5.5,125 ± 22,368.7 ± 30.9,"Large movements Duration (Male Sprague-Dawley rats; [15]): 66.5 ± 9.9 s; Large movements Occurrence (Male Sprague-Dawley rats; [15]): 254 ± 32; Inactivity Duration (Male Sprague-Dawley rats; [16]): 465.7 ± 49.0 s; Large movements Duration (Male Sprague-Dawley rats; [16]): 42.7 ± 8.0 s; Large movements Occurrence (Male Sprague-Dawley rats; [16]): 164 ± 30; sedative effect (Male Sprague-Dawley rats; [17]): no sedative effects at any time; hyperlocomotor effect (Male Sprague-Dawley rats; rats, 3 hours after administration): slight and non-significant hyperlocomotor effect; inhibitory activity against 5-hydroxytryptamine isoform 1d [1]: no inhibitory activity; Dopamine Transporter (DAT) binding activity [2]: lack Dopamine Transporter (DAT) binding activity; inhibitory activity against catechol O-methyl transferase (COMT) [3]: no inhibitory activity; inhibition of the serotonin transporter protein SERT [4]: potent inhibitors; inhibitory activity against 5-hydroxytryptamine isoform 1b [5]: no inhibitory activity; inhibitory activity against monoamine oxidase isoform B [6]: no inhibitory activity; inhibitory activity against monoamine oxidase isoform A [7]: no inhibitory activity; dopamine receptor binding activity (dopamine receptor): only weak or non-existent; inhibition of the adrenergic receptors (adrenergic receptors): either weakly active or inactive"
"O=C(CCCN1CCC(O)(c2ccc(Cl)cc2)CC1)c1ccc(F)cc1 [haloperidol, reference compound]",–,–,–,–,–,–,–,637.2 ± 60.1,14.8 ± 8.5,58 ± 33,723.6 ± 50.2,2.2 ± 2.0,9 ± 8,–,–,–,–,–,–,–,–
